The source of these data is patent US20160303095A1, “METHODS OF TREATING HEPATITIS B VIRUS” (Gilead Sciences, Inc., priority 2015, published 2016).

In one experiment the target is T1, KDM2A (Homo sapiens, UniProt Q9Y2K7).
T1 construct: host or cells: Sf9 cells
T1 sequence (Q9Y2K7 1-1162): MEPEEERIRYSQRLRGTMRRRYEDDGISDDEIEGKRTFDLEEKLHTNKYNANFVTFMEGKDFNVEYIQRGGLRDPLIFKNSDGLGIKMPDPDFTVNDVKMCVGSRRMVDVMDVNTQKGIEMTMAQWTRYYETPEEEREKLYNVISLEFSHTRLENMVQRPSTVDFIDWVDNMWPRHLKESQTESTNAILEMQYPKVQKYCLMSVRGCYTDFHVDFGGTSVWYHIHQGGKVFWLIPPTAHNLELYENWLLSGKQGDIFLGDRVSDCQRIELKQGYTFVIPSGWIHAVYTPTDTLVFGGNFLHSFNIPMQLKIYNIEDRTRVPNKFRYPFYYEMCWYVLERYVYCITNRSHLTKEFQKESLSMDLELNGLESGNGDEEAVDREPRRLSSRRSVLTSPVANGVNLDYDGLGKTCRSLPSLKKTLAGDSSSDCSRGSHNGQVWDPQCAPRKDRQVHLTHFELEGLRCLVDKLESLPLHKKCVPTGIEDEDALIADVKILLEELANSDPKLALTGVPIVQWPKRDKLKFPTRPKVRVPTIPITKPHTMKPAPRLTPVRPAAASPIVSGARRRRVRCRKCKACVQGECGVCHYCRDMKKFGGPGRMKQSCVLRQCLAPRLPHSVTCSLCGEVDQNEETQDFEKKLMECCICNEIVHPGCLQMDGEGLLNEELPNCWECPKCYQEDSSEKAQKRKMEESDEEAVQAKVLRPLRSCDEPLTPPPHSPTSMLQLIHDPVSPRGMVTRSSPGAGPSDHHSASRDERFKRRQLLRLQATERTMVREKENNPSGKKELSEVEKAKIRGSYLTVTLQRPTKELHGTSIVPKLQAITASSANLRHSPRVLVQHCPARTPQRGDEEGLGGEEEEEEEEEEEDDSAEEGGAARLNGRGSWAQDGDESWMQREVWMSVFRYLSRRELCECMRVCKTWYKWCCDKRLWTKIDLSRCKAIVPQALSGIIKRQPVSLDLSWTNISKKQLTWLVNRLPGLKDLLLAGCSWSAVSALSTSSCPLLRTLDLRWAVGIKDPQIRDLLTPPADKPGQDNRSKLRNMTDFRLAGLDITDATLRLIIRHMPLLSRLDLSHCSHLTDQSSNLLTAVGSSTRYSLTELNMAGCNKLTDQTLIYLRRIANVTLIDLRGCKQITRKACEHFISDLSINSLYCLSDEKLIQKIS
The experiment in a line: Biochemical KDM inhibition assay (LANCE), KDM2A. As to conditions: read-out: Biochemical IC50 KDM 2A. On the procedure:
(§1) Representative compounds were characterized for their inhibition of KDM5 using biotinylated histone substrates. Inhibition was measured in vitro (CEREP Poitier, Le Bois l'Evêque, France) following experimental conditions described in Table 2. Briefly, the test compound, reference compound or water (control) was mixed with about 2-20 ng of recombinant, Human enzymes expressed in Sf9 cells in a buffer containing 45 mM Hepes/Tris (pH 7), 5 μM FAS, 100 μM ascorbic acid, 10 μM 2-oxoglutarate, 0.01% Tween 20 and 0.01% BSA. Thereafter, the reaction was initiated by adding the biotin-labeled substrate, and the mixture was incubated for 10-30 min at room temperature. For basal control measurements, the enzyme was omitted from the reaction mixture. Following incubation the reaction was stopped by adding 1 mM EDTA. After 5 min, the anti-methyl histone antibody labeled with europium chelate and the Ulight streptavidine (Perkin Elmer Waltham, Mass.) were added. After 60 min more, the fluorescence transfer was measured at λex=320 nm and λem=620 and λem=665 nm using a microplate reader (Envision, Perkin Elmer) (LANCE). The enzyme activity was determined by dividing the signal measured at λem=665 nm by that measured at 620 nm (ratio).

The next experiment has as its target T2, KDM2B (Homo sapiens, UniProt Q8NHM5).
T2 construct: host or cells: Sf9 cells
T2 sequence (Q8NHM5 1-1336): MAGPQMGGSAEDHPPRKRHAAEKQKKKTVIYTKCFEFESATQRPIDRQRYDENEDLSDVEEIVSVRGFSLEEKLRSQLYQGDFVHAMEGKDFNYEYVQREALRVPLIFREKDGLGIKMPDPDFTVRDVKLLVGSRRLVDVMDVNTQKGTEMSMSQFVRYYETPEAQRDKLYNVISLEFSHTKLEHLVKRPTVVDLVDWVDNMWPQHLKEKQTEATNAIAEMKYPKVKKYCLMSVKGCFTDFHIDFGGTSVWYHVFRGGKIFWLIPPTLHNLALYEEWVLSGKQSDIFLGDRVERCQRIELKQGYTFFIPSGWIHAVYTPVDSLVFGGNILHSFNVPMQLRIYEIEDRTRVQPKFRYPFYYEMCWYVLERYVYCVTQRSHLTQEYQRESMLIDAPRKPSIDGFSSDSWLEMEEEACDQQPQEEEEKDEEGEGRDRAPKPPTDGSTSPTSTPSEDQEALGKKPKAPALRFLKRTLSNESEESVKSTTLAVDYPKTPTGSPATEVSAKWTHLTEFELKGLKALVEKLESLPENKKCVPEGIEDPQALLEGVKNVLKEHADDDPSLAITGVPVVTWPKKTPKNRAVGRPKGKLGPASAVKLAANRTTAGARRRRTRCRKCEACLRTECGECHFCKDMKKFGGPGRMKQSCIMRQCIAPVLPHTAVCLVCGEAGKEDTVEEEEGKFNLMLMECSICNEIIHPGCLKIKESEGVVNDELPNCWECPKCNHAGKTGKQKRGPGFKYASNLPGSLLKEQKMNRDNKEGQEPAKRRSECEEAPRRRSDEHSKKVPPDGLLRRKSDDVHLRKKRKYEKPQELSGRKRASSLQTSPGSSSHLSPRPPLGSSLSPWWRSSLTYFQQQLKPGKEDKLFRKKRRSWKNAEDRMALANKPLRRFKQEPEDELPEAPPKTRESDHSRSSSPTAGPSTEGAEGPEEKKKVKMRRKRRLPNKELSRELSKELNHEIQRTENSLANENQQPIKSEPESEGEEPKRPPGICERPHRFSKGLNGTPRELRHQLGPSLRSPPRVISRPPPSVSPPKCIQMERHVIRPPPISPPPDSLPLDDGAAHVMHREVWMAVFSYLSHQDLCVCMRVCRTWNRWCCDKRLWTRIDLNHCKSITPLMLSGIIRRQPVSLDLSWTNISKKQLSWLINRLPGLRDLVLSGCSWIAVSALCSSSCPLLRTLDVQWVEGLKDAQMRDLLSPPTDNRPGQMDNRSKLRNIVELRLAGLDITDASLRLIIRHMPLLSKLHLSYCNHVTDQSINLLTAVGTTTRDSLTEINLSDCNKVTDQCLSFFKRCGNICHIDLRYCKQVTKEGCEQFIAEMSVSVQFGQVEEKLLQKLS
Put plainly: Biochemical KDM inhibition assay (LANCE), KDM2B. The conditions noted are these: read-out: Biochemical IC50 KDM 2B. As for the experimental part: as §1

As to `Nc1c(C(=O)O)ccnc1C(=O)O` [Example 7, reference compound], the IC50 – broadly, the midpoint of a concentration-inhibition curve – turned out to be 0.36 µM at KDM2A and 0.16 µM on KDM2B.
For `CCN(CCN(C)C)C(=O)CNCc1cc(C(=O)O)ccn1` [Example 9] the same measures were 0.65 µM and 1.6 µM.
The matching figures for `Cc1cc(Cl)ccc1COc1ccnn1-c1cc(C(=O)O)ccn1` [Example 11]: 0.45 µM and 0.66 µM.
The matching figures for `O=C(O)c1ccncc1Nc1nn(CCN2CCC(F)(F)CC2)c2ccc(F)cc12` [Example 13]: 0.51 µM and 2.4 µM.
As to `CCN(CC)CCCCNCc1cc(C(=O)O)ccn1` [Example 18], the IC50 on KDM2A was 2 µM; on KDM2B, 12 µM.
